As a reminder, the EC50 is the concentration at which the effect is half-maximal.

Results on two compounds are retold here after ChEMBL document CHEMBL5727849, “Piperidinone formyl peptide 2 receptor and formyl peptide 1 receptor agonists” (2020).

For assay [1], the target named is T1, N-formyl peptide receptor 2 (Homo sapiens, UniProt P25090).
T1 sequence (P25090 whole entry): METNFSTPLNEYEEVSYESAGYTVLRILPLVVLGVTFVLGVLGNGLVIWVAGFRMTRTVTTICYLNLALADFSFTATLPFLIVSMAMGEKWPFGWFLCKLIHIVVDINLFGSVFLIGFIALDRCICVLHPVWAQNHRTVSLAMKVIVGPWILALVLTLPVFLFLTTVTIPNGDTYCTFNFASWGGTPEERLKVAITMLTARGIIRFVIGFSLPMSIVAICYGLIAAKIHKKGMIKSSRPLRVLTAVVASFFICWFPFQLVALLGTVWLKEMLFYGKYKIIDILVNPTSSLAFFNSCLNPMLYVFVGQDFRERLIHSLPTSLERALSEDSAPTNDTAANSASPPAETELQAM
Briefly: (§1) cAMP Assay: FPR2 and FPR1 Cyclic Adenosine Monophosphate (cAMP) Assays. A mixture of forskolin (5 μM final for FPR2 or 10 μM final for FPR1) and IBMX (200 μM final) were added to 384-well Proxiplates (Perkin-Elmer) pre-dotted with test compounds in DMSO (1% final) at final concentrations in the range of 0.020 nM to 100 μM. Chinese Hamster Ovary cells (CHO) overexpressing human FPR1 or human FPR2 receptors were cultured in F-12 (Ham's) medium supplemented with 10% qualified FBS, 250 μg/ml zeocin and 300 μg/ml hygromycin (Life Technologies). Reactions were initiated by adding 2,000 human FPR2 cells per well or 4,000 human FPR1 cells per well in Dulbecco's PBS (with calcium and magnesium) (Life Technologies) supplemented with 0.1% BSA (Perkin-Elmer). The reaction mixtures were incubated for 30 min at room temperature. The level of intracellular cAMP was determined using the HTRF HiRange cAMP assay reagent kit (Cisbio) according to manufacturer's instruction. Solutions of cryptate conjugated anti-cAMP and d2 flurorophore-labelled cAMP were made in a supplied lysis buffer separately. Upon completion of the reaction, the cells were lysed with equal volume of the d2-cAMP solution and anti-cAMP solution. After a 1-h room temperature incubation, time-resolved fluorescence intensity was measured using the Envision (Perkin-Elmer) at 400 nm excitation and dual emission at 590 nm and 665 nm. In kind it is cell-based. For orientation: Time-resolved FRET reads energy transfer from a long-lived donor to a nearby acceptor.

The next assay concerns the target T2, fMet-Leu-Phe receptor (Homo sapiens, UniProt P21462).
T2 sequence (P21462 whole entry): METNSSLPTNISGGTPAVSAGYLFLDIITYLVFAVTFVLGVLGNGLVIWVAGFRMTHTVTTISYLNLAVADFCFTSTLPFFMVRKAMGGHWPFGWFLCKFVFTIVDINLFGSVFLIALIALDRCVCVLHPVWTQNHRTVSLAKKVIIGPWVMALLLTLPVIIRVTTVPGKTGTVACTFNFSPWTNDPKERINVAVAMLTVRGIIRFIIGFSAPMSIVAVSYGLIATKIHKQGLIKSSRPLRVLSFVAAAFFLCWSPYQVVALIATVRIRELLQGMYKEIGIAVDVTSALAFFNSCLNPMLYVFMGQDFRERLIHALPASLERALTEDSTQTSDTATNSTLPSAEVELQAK
Described as §1. In kind it is cell-based.

Consider `NC(=O)c1ccccc1-c1ccc(N2CCC[C@@H](NC(=O)Nc3ccc(F)c(F)c3)C2=O)cc1`, for which the values for the EC50 (in assay [1]; at fMet-Leu-Phe receptor) were 840 nM and 1700 nM, respectively.
The corresponding values for `O=C(Nc1ccc(Cl)cc1)N[C@@H]1CCCN(c2ccc(-c3c(Cl)cccc3Cl)cc2)C1=O` are 11 nM and 14 nM.
